Holding throughout (format): functional, Cricetulus griseus
Test [1] relates to Cricetinae gen. sp. Put plainly: Compound was tested for percent reduction of liver cholesterol esters absorption in cholesterol fed hamster model at an oral dose of 50 mg/kg/day.
Test [2] relates to Cricetinae gen. sp. Put plainly: Compound was tested for percent reduction of liver cholesterol esters absorption in cholesterol fed hamster model at an oral dose of 10 mg/kg/day.
For test [3], the system named is Cricetinae gen. sp. Put plainly: Dose required to inhibit cholesterol absorption in cholesterol fed hamster model.
The subject of test [4] is Cricetinae gen. sp. Put plainly: Compound was tested for percent reduction of serum cholesterol absorption in cholesterol fed hamster model at an oral dose of 10 mg/kg/day.
In test [5] the test system is Cricetinae gen. sp. Put plainly: Compound was tested for percent reduction of liver cholesterol esters absorption in cholesterol fed hamster model at an oral dose of 3 mg/kg/day.
Test [6] relates to Cricetinae gen. sp. Put plainly: Compound was tested for percent reduction of serum cholesterol absorption in cholesterol fed hamster model at an oral dose of 3 mg/kg/day.

`COc1ccc([C@@H]2[C@@H](CCCc3ccccc3)C(=O)N2c2ccc(OC)cc2)cc1` (racemic) [SCH-48461]: the Reduction with Cricetinae gen. sp. [1] is reported as -78%.
The ED50 is the midpoint of the dose-response relation. The low end stands for an effect at a small dose, the high end for a need for a large dose. Take `O=C(O)Cc1ccc([C@@H]2[C@@H](CCCc3ccccc3)C(=O)N2c2ccc(F)cc2)cc1`: the Reduction with Cricetinae gen. sp. [2] was -97%; in the test on Cricetinae gen. sp. [4] it was -44%. In the test on Cricetinae gen. sp. [3], this compound displayed an ED50 of 1.1 mg/kg/day.
Compound `COC(=O)CCc1ccc([C@@H]2[C@@H](CCCc3ccccc3)C(=O)N2c2ccc(OC)cc2)cc1` gave an ED50 in the test on Cricetinae gen. sp. [3] of 0.85 mg/kg/day. The figures for the Reduction in the test with Cricetinae gen. sp. [5] and with Cricetinae gen. sp. [6] were -76% and -20%, respectively.
For `COC(=O)CCc1ccc([C@@H]2[C@@H](CCCc3ccccc3)C(=O)N2c2ccc(OC)cc2)cc1` (racemic), the Reduction with Cricetinae gen. sp. [1] was -93%.
As for `COC(=O)c1ccc([C@@H]2[C@@H](CCCc3ccccc3)C(=O)N2c2ccc(F)cc2)cc1`, the results for the Reduction in the test on Cricetinae gen. sp. [5] and in the test with Cricetinae gen. sp. [6] were -16% and 0%, respectively.
Take `CCN(CC)C(=O)CCc1ccc([C@@H]2[C@@H](CCCc3ccccc3)C(=O)N2c2ccc(F)cc2)cc1`: the Reduction in the test on Cricetinae gen. sp. [2] is reported as -19%; with Cricetinae gen. sp. [4] it was 0%.
Consider `COC(=O)Cc1ccc([C@@H]2[C@@H](CCCc3ccccc3)C(=O)N2c2ccc(OC)cc2)cc1`, for which it took a dose of 0.95 mg/kg/day to reach the 50% effect level in the test on Cricetinae gen. sp. [3] (ED50). The Reduction is -89% in the test on Cricetinae gen. sp. [5] and -26% in the test on Cricetinae gen. sp. [6].
As for `O=C(O)CCc1ccc([C@@H]2[C@@H](CCCc3ccccc3)C(=O)N2c2ccc(F)cc2)cc1`, the Reduction in the test with Cricetinae gen. sp. [2] was -63%; in the test with Cricetinae gen. sp. [4], -32%.
Turning to `COc1ccc(N2C(=O)[C@H](CCCc3ccccc3)[C@H]2c2ccc(OC(C)(C)C(=O)O)cc2)cc1` (racemic), in the test with Cricetinae gen. sp. [1], the Reduction is given as -75%.
Regarding `COc1ccc([C@@H]2[C@@H](CCCc3ccccc3)C(=O)N2c2ccc(OC)cc2)cc1` [SCH-48461], the Reduction in the test on Cricetinae gen. sp. [2] is on record as -93%; in the test with Cricetinae gen. sp. [4] it was -43%. In the test on Cricetinae gen. sp. [3], this compound came in with an ED50 of 2 mg/kg/day.
For the compound `CCN(CC)C(=O)Cc1ccc([C@@H]2[C@@H](CCCc3ccccc3)C(=O)N2c2ccc(F)cc2)cc1`, the Reduction is reported as -19% with Cricetinae gen. sp. [2] and 0% with Cricetinae gen. sp. [4].
Turning to `O=C(O)c1ccc([C@@H]2[C@@H](CCCc3ccccc3)C(=O)N2c2ccc(F)cc2)cc1`, the Reduction in the test on Cricetinae gen. sp. [5] was -37%; in the test with Cricetinae gen. sp. [6], 0%.
In the case of `COC(=O)Cc1ccc([C@@H]2[C@@H](CCCc3ccccc3)C(=O)N2c2ccc(F)cc2)cc1`, the Reduction is reported as -61% with Cricetinae gen. sp. [5] and -16% in the test with Cricetinae gen. sp. [6].
For the compound `COC(=O)CCc1ccc([C@@H]2[C@@H](CCCc3ccccc3)C(=O)N2c2ccc(F)cc2)cc1`, the Reduction in the test on Cricetinae gen. sp. [2] is given as -72%; with Cricetinae gen. sp. [4] it was -26%.
In the case of `COC(=O)C(C)(C)Oc1ccc([C@@H]2[C@@H](CCCc3ccccc3)C(=O)N2c2ccc(OC)cc2)cc1`, the Reduction in the test on Cricetinae gen. sp. [1] is -80%.
As to `COC(=O)/C=C/c1ccc([C@@H]2[C@@H](CCCc3ccccc3)C(=O)N2c2ccc(OC)cc2)cc1`, in the test with Cricetinae gen. sp. [1], the Reduction was -90%.

These data come from ChEMBL document CHEMBL1130741, “Carboxy-substituted 2-azetidinones as cholesterol absorption inhibitors” (1998).
